In series [1] the target is PDE3A (Homo sapiens (Human), UniProt Q14432). Nature of the series: Effect on the activity of the enzyme PDE3 (CEREP, HTRF). To be noted: for inhibition at 1 µM: read-out: PDE3 inhibition at 1000 nM; for IC50: read-out: IC50 PDE3, recombinant PDE3A, substrate cAMP. A general note: Time-resolved FRET reads energy transfer from a long-lived donor to a nearby acceptor.
Description: Evaluation of the Effect of the Compounds of the Invention on the Activity of the Enzyme PDE3
The subject of series [2] is tumour cell line HeLa. Briefly: Cell proliferation, 14C-thymidine incorporation, HeLa. Format: cell-based. An excerpt: Measurement of the Cell Proliferation
Background: Uptake of a labelled nucleoside into DNA is a usual measure of proliferation.

Series [3] in a line: Metabolism in the presence of murine microsomal liver fractions. Format: in vitro ADME. The following applies: percentage disappearance, 5 μM, 20 minutes; for Mouse microsome: 1 mg/ml proteins, NADPH. The method, then: (§1) Evaluation of the Metabolism in the Presence of Microsomal Preparations of Human and Murine Livers.
(§2) The compounds of the invention (5 μM) are incubated at physiological temperature over human and murine microsomal liver fractions (1 mg/ml of proteins), diluted in a phosphate buffer, in the presence of bovine serum albumin (1 mg/ml BSA), and the reduced form of nicotinamide adenine dinucleotide phosphate (1 mM NADPH). To terminate incubation, four volumes of acetonitrile containing corticosterone as internal standard (IS) are added. The samples are centrifuged and the supernatants are analysed by liquid chromatography/tandem mass spectrometry coupling (LC/MS-MS). The LC/MS-MS analysis is performed on a QTRAP API4000 mass spectrometer (Sciex) equipped with an 1100 series chromatography system (Agilent) and a Pal CTC automatic injector. The data are acquired and analysed using Analyst 1.4.1 software. The samples are separated on a 3 μm C18 Polaris column, eluted at a flow rate of 0.7 ml/min with a gradient from acetonitrile (solvent B) into water containing 0.1% formic acid (solvent A). The elution programme is composed of the gradient from 20 to 90% of solvent B in 2 minutes, an isocratic stage at 90% of solvent B, for 0.9 minute, and a return to the initial conditions in 0.1 minute. The area of the chromatographic peaks for the compound and for the internal standard are integrated using the Analyst-Classic algorithm. The metabolic stability of the products of the invention is estimated by comparing the integration ratios (ion currents of the compounds/ion current IS) measured after 0 minute (t0) and 20 minutes (t20) of incubation. The metabolic stability is then expressed as a percentage disappearance in accordance with the following formula: Metabolism %=(ratio of peaks at t0−ratio of peaks at t20)/ratio of peaks at t0

A short description of series [4]: Metabolism in the presence of human microsomal liver fractions. Format: in vitro ADME. To be noted: percentage disappearance, 5 μM, 20 minutes; for Human microsome: 1 mg/ml proteins, NADPH. The procedure:
as §1, §2

Series [5] has as its target Aurora B/Incenp (Homo sapiens (Human), UniProt Q96GD4). Briefly: Aurora B/Incenp kinase activity, radioactive 33P incorporation into NuMA fragment.
Protocol: (§3) The kinase activity is measured by a radioactive assay of the amount of radioactive phosphate (^33P) incorporated into a fragment of the protein NuMA (Nuclear Mitotic Apparatus protein) after 30 minutes of incubation at 37° C. […] In each plate, there are eight control wells: four positive controls (maximum kinase activity), for which measurement is made in the presence of enzyme and substrate and in the absence of compound of the invention, and four negative controls (background) for which measurement is made in the absence of enzyme, substrate and test compound.
The two proteins form a complex which is called Aurora B/Incenp. […] This fragment is used as substrate.
Series [6] is described as follows: Chemical stability in various media (HPLC). Format: physicochemical. The following applies: 100 μM, 20° C., 48 hours. The procedure: Measurement of the Chemical Stability of the Compounds
The compounds are diluted in the media under study at a final concentration of 100 μM, by dilution of a 10 mM stock solution in DMSO. The solutions are stored at 20° C. for a total time of 48 hours, and the concentration of the compounds under study is measured over time (t=0, 1, 6, 12, 24 and 48 hours) by HPLC. HPLC analysis is carried out with an Agilent system 1100 instrument equipped with a diode array detector on a Luna 018 column, 30×4.6 mm, 3 μm (Phenomenex) which is eluted with a gradient from acetonitrile (solvent B) into water containing 0.5% (v/v) of formic acid (solvent A) at a flow rate of 1.5 ml/min and a temperature of 25° C. The elution programme consists of a gradient from 10 to 90% solvent B in 5 minutes, followed by an isocratic stage of one minute at 90% of solvent B, and return to the initial conditions over one minute. The concentration of the products under study is estimated from the height and area of the characteristic peak of the product under study on a chromatogram at the maximum wavelength of each product. The area and the height measured at each time of sampling are related to the area and height obtained for the sample at time 0. When degradation is observed, a half-life is measured from the resulting time-concentration curve.

Series [7] relates to HCT116. To be noted: read-out: IC50 HCT116; HCT116, 96 hours treatment.
Protocol: (§4) The cell proliferation is estimated by the amount of ^14C-thymidine incorporated in the cells.
(§5) D0: the cells are seeded in 96-well Cytostar plates in 180 μL of culture medium. The plates are then placed in an incubator at 37° C., 5% CO2 for four hours. The test products are then added in a volume of 10 μL per well, starting from a 20× solution. This solution contains 2% of DMSO in the culture medium. The final concentration of DMSO is therefore 0.1%. The plates are then placed in an incubator at 37° C./5% CO2 for 72 hours. D3: after 72 hours, 10 μL per well of ^14C-thymidine at 10 μCi/mL in the culture medium are added. The plates are then placed in an incubator at 37° C., 5% CO2 for 24 hours. D4: The incorporation of ^14C thymidine is measured on a Micro-Beta radioactivity counter (Perkin-Elmer) after this 24-hour, “pulse” period. The total time of treatment of the cells with the test product is 96 hours.
(§6) The percentage inhibitions IC50 are calculated in Excel using the following formula:
(§7) [formula] X=Measurement for the Sample CC=Cell Control Blank=Measurement in the wells without cells
Series [8] is described as follows: Clearance in the presence of human hepatocytes. To be noted: 0.5 or 5 μM, 24 hours, average over different preparations of hepatocytes. Format: in vitro ADME. The method, then:
The LC/MS-MS analysis is performed on a QTRAP API4000 mass spectrometer (Sciex) equipped with an 1100 series chromatography system (Agilent) and a Pal CTC automatic injector. The data are acquired and analysed using Analyst 1.4.1 software. The samples are separated on a 3 μm C18 Polaris column, eluted at a flow rate of 0.7 ml/min with a gradient from acetonitrile (solvent B) into water containing 0.1% formic acid (solvent A). The elution programme is composed of the gradient from 20 to 90% of solvent B in 2 minutes, an isocratic stage at 90% of solvent B, for 0.9 minute, and a return to the initial conditions in 0.1 minute.

Series [9] concerns the target Aurora A (Homo sapiens (Human), UniProt O14965). Briefly: Aurora A kinase activity, radioactive 33P incorporation into NuMA fragment.
Protocol: as §3
The recombinant human enzyme Aurora A used is expressed in entire form with a poly-Histidine tag in N-terminal position and is produced in E. coli.
Series [10] deals with HCT116. Nature of the series: cells. To be noted: Homo sapiens, HCT-116, 96 h, read-out: IC50 HCT116.
Protocol: as §4, §5, §6, §7
Where [11] appears, read: Homo sapiens, 96 h, read-out: IC50 HeLa.
The mark [12] stands for this setting: read-out: IC50 Aurora A, 10 nM Aurora A, 1 μM ATP, 500 nM NuMA, 30 min at 37° C.
The mark [13] stands for this setting: Homo sapiens, 96 hours treatment, read-out: IC50 HeLa (converted).

Each structure is given as a SMILES string. Like-named read-outs stand apart in the source and are kept apart here.

Results on eleven compounds are retold here after US9073917B2, “Anti-cancer compound and pharmaceutical composition containing the same” (SANOFI, priority 2009, dated 2015).

Aurora A, sequence (O14965 whole entry, the tested form may be a part): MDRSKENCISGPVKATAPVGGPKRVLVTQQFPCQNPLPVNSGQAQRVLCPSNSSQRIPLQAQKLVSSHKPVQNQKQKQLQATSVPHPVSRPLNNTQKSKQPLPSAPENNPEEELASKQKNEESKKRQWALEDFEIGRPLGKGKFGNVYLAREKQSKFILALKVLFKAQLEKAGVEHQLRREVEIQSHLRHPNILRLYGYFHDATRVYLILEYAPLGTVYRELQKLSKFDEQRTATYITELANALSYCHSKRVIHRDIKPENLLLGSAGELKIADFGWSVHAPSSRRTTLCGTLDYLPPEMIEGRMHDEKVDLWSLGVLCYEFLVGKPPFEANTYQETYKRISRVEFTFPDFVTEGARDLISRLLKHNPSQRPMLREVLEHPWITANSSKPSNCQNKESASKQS
PDE3A, sequence (Q14432 whole entry): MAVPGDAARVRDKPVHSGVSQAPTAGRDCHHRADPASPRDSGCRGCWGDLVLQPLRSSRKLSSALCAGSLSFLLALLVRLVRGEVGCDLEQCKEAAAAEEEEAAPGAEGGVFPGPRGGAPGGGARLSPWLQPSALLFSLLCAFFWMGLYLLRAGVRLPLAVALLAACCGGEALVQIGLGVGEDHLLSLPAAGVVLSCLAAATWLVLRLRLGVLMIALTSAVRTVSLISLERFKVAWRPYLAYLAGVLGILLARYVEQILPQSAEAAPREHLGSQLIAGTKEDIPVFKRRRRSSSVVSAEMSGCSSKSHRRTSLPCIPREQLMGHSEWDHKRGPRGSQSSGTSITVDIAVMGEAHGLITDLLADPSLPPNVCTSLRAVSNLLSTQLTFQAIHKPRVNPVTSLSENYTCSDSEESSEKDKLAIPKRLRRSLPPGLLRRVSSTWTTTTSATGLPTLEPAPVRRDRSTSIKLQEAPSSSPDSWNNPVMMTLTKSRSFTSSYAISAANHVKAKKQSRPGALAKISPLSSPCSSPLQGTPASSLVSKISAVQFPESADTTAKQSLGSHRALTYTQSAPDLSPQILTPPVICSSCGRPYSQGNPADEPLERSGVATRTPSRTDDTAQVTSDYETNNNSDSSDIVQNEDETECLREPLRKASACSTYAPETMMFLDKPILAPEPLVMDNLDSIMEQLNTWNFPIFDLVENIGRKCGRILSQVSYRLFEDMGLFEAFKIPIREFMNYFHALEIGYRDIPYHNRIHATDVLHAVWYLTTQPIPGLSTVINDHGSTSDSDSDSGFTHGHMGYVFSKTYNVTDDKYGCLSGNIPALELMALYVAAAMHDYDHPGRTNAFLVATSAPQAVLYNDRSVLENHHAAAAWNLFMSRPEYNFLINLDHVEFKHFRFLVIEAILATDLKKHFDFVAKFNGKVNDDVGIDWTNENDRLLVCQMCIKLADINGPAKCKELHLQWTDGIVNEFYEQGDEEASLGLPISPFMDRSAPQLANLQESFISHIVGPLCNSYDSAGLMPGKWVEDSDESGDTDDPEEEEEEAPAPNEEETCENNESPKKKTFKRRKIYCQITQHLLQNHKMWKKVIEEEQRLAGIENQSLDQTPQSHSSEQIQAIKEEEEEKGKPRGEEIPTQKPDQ
Aurora B/Incenp, sequence (Q96GD4 whole entry, the tested form may be a part): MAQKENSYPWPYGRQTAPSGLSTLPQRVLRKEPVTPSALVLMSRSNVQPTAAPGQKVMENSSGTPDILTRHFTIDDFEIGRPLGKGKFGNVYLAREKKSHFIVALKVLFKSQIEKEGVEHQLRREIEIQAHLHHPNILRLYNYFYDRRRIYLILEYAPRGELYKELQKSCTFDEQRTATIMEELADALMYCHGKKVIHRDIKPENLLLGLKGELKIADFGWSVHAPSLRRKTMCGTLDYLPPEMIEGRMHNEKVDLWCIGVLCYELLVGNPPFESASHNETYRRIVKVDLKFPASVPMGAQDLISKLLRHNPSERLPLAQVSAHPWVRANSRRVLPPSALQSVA
Aurora B/Incenp, sequence (Q9NQS7 821-918 partner): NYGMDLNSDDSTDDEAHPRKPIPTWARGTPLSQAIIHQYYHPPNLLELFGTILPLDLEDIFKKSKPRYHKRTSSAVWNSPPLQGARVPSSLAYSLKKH

In the case of `CCOC(=O)c1[nH]cc2c1NC1=C(C(=O)CCC1)C2c1cccc(Oc2nc3ccccc3[nH]2)c1` (racemic) [Example 1, ethyl 8-oxo-9-[3-(1H-benzimidazol-2-yloxy)phenyl]-4,5,6,7,8,9-hexahydro-2H-pyrrolo[3,4-b]quinoline-3-carboxylate], the inhibition – broadly, the change of the read-out against control, counted positive when it falls – at 1 µM in series [1] was found to be 78%. For the same compound, the results for the IC50 in series [2] (setting [11]) and in series [5] were 205 nM and 4 nM, respectively. In series [3], the Mouse microsome was determined as 31%. The Human microsome in series [4] is 37%.

Consider `CCOC(=O)c1[nH]cc2c1NC1=C(C(=O)CCC1)C2c1cccc(Oc2nc3ccccc3[nH]2)c1` (single isomer, unassigned) [Example 3, ethyl 8-oxo-9-[3-(1H-benzimidazol-2-yloxy)phenyl]-4,5,6,7,8,9-hexahydro-2H-pyrrolo[3,4-b]quinoline-3-carboxylate], for which the IC50 in series [2] (setting [11]) is more than 10000 nM; in [5], 900 nM.

As to `CCOC(=O)c1[nH]cc2c1NC1=C(C(=O)CCC1)C2c1cccc(Oc2nc3ccccc3[nH]2)c1` (stereo not shown) [Example 2, ethyl 8-oxo-9-[3-(1H-benzimidazol-2-yloxy)phenyl]-4,5,6,7,8,9-hexahydro-2H-pyrrole[3,4-b]quinoline-3-carboxylate], in series [1], the IC50 is 4000 nM. In addition, the IC50 in series [2] (96 hours treatment, read-out: IC50 HeLa (converted)) is 67 nM. Further, in series [6], the “Chemical stability, HCl 0.05N 50/50 water/acetonitrile” value is “stable”; the “Chemical stability, NaOH 0.05N 50/50 water/acetonitrile” value is “stable”; the “Chemical stability, Phosphate buffer 25 mM pH = 7.4 50/50 water/acetonitrile” value is “stable”; the “Chemical stability, Phosphate buffer 25 mM pH = 7.4 + 1% 2-mercaptoethanol 50/50 water/acetonitrile” value is given as “stable”. For the same compound, the “Chemical stability, Phosphate buffer 25 mM pH = 7.4 + 1% benzylamine 50/50 water/acetonitrile” value in series [6] was “stable”. In series [3], the “Metabolism measured in the presence of murine microsomal fraction” value is 50% and the Mouse microsome is listed as 50%. Besides, in series [4], the “Metabolism measured in the presence of human microsomal fraction” value is 32% and the Human microsome was 32%. Also, the IC50 in series [7] was found to be 20 nM. For the same compound, the IC50 in [5] (read-out: IC50 Aurora B/Incenp) came to 1 nM. For the same compound, the “Intrinsic clearance measured in the presence of human hepatocytes” value in series [8] is listed as 0.121 (average of 5 determinations obtained with 5 ml · h^−1 · 10^−6 cells.

With `CCOC(=O)c1[nH]cc2c1NC1=C(C(=O)CCC1)C2c1cccc(Sc2nc3ccccc3[nH]2)c1` (stereo not shown) [Example 4], the IC50 in series [2] (setting [11]) is 9660 nM; in [5], 6 nM. Also, the Mouse microsome in series [3] is recorded as 67%. Further, in [4], the Human microsome was 77%.

On to `O=C1CCCC2=C1C(c1cccc(Oc3nc4ccccc4[nH]3)c1)c1c[nH]nc1N2` (stereo not shown) [Example 5], for which the results for the IC50 in series [9] (setting [12]), in [2] (setting [13]) and in series [5] were 23 nM, 9630 nM and 6 nM, respectively.

In the case of `O=C1CNCC2=C1C(c1cccc(Oc3nc4ccccc4[nH]3)c1)c1c[nH]nc1N2` (stereo not shown) [Example 6], the IC50 is more than 10000 nM in [2] (setting [11]) and 13 nM in [5].

Consider `CCOC(=O)c1[nH]cc2c1NC1=C(C(=O)CC(C)(C)C1)C2c1cccc(Oc2nc3ccccc3[nH]2)c1` (stereo not shown) [Example 7], for which the IC50 in [9] is 3 nM; in [2] (setting [13]), 430 nM; in series [5], 4 nM. Further, in series [3], the Mouse microsome is on record as 96%. Also, the Human microsome in series [4] is recorded as 65%.

Turning to `CCOC(=O)c1[nH]cc2c1NC1=C(C(=O)CC(C)(C)C1)C2c1cccc(Sc2nc3ccccc3[nH]2)c1` (stereo not shown) [Example 8], the IC50 is 102 nM in series [9], 6860 nM in series [2] (setting [13]) and 21 nM in series [5]. Also, the Mouse microsome in series [3] was determined as 84%. Moreover, in [4], the Human microsome is 80%.

Consider `CC1(C)CC(=O)C2=C(C1)Nc1n[nH]cc1C2c1cccc(Oc2nc3ccccc3[nH]2)c1` (stereo not shown) [Example 10], for which the IC50 is 22 nM in [9] (setting [12]), 6690 nM in [2] (setting [13]) and 9 nM in [5].

Take `CCOC(=O)c1[nH]cc2c1NC1=C(C(=O)CCC1)[C@@H]2c1ccc(Sc2nc3ccccc3[nH]2)o1` [Example 12]: the IC50 in series [1] came out at 68 nM. For the same compound, in series [2] (setting [11]), the IC50 was 16 nM. For the same compound, in series [6], the “Chemical stability, HCl 0.05N 50/50 water/acetonitrile” value is “stable”; the “Chemical stability, NaOH 0.05N 50/50 water/acetonitrile” value was “stable”; the “Chemical stability, Phosphate buffer 25 mM pH = 7.4 50/50 water/acetonitrile” value is reported as “stable”; the “Chemical stability, Phosphate buffer 25 mM pH = 7.4 + 1% 2-mercaptoethanol 50/50 water/acetonitrile” value was “unstable”. Further, the “Chemical stability, Phosphate buffer 25 mM pH = 7.4 + 1% benzylamine 50/50 water/acetonitrile” value in series [6] was “stable”. In [3], the “Metabolism measured in the presence of murine microsomal fraction” value is 81% and the Mouse microsome is 81%. Also, in [4], the “Metabolism measured in the presence of human microsomal fraction” value turned out to be 75% and the Human microsome is 75%. The IC50 in series [10] came out at 1 nM. Further, the “Intrinsic clearance measured in the presence of human hepatocytes” value in [8] is listed as 0.29 (average of 3 determinations obtained with 3 ml · h^−1 · 10^−6 cells.

For the compound `CCOC(=O)c1[nH]cc2c1NC1=C(C(=O)CCC1)C2c1ccc(Sc2nc3cccc(OC)c3[nH]2)o1` (stereo not shown) [Example 13], in series [1], the inhibition at 1 µM stood at 93%. Also, the IC50 was 20 nM in series [2] (setting [13]) and 10 nM in [5]. Moreover, the Mouse microsome in series [3] is reported as 74%. In series [4], the Human microsome is 53%.
